The values below come from patent US20240140948A1, “PYRIDOPYRIMIDINE DERIVATIVES AS KRAS INHIBITORS” (BETA PHARMA, INC., priority 2021, published 2024).

pIC50: −log10 of the molar value. Read-outs that look alike come from different tables or passages of the source.

The target in series [1] is T1, KRAS G12C (Homo sapiens, UniProt P01116, G12C).
T1 construct: aa 2-169, expressed in E. coli; His-tag (TEV cleavable) (N); purchased Reaction Biology Corporation (RBC) SOS1: RBC cat #MSC-11-502; KRAS G12C: none printed; host or cells: E. coli
T1 sequence (P01116 2-169 G12C): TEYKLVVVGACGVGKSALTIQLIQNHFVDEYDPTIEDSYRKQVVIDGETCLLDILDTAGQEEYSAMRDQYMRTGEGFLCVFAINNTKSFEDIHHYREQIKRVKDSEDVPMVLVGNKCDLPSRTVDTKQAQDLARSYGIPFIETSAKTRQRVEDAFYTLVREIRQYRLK
Put plainly: KRAS G12C/SOS1 Nucleotide Exchange Assay (SOS1-mediated Bodipy-GDP to GTP exchange). Type of series: biochemical. The note with it: substrate Bodipy-GDP/Kras G12C, 0.5% DMSO; 30 min pre-incubation at RT; dRFU analysis method for covalent inhibitors. As for the experimental part:
The excess Bodipy-GDP is separated from loaded protein using a spin desalting column.
• 1. […] Deliver compounds in 100% DMSO into buffer using acoustic technology (Echo550; nanoliter range). • 3. […] Prepare 3× (SOS1+GTP) solution in reaction buffer. • 5. Deliver 5 μL of SOS1+GTP solution into reactions wells (deliver GTP only to column 1 for no SOS1 control). • 6.
where Yraw is defined as fluorescence at time t, Ao is the average initial fluorescence with no SOS1, and M is the minimum fluorescence at the end of the reaction at the maximum SOS1.
The background subtracted signals (no SOS1 protein wells were used as background) were converted to % activity relative to DMSO controls. Data was analyzed using GraphPad Prism 4 with “sigmoidal dose-response (variable slope)”; 4 parameters with Hill Slope. The constraints were bottom (constant equal to 0) and top (must be less than 120).

The nature of series [2]: Pharmacokinetics in male CD-1 mice. Type of series: in vivo. The note with it: for MRT inf: read-out: MRT0-inf; for MRT last: read-out: MRT0-last. The protocol: The pharmacokinetic profile of the Example 2 (compound la) was determined in male CD-1 mice by WuXi AppTec Co., Ltd., 1318 Wuzhong Avenue, Wuzhong District, Suzhou, China, 215104.
The mark [3] stands for this setting: mouse, 30 mg/kg PO, mean plasma.

Regarding `C=CC(=O)N1CCN(c2nc(OC[C@@H]3CCCN3C)nc3cc(-c4cccc5cccc(Cl)c45)cnc23)C[C@@H]1CC#N` [Example 1, 2-((S)-1-Acryloyl-4-(7-(8-chloronaphthalen-1-yl)-2-(((S)-1-methylpyrrolidin-2-yl)methoxy)pyrido[3,2-d]pyrimidin-4-yl)piperazin-2-yl)acetonitrile], in series [1], the pIC50 (commonly the IC50 on a negative log10 scale, so that one unit is a factor of ten) was 7.57.
Consider `C=C(F)C(=O)N1CCN(c2nc(OC[C@@H]3CCCN3C)nc3cc(-c4cccc5cccc(Cl)c45)cnc23)C[C@@H]1CC#N` [Example 2, 2-((S)-4-(7-(8-Chloronaphthalen-1-yl)-2-(((S)-1-methylpyrrolidin-2-yl)methoxy)pyrido[3,2-d]pyrimidin-4-yl)-1-(2-fluoroacryloyl)piperazin-2-yl)acetonitrile], for which the pIC50 in series [1] was 7.20. Moreover, in series [2] (3 mg/kg IV, mean plasma), the AUCExtra was determined as 9.23%, the AUMCExtra was determined as 35.2% and the Tlast was determined as 8.00 h. In addition, in series [2] (30 mg/kg PO, mean plasma), the AUCExtra is reported as 17.1%, the AUMCExtra stood at 43.8% and the Tlast was found to be 8.00 h. In series [2] (mouse, 3 mg/kg IV, mean plasma), the AUC(0-inf) – broadly, the area under the concentration-time curve extrapolated to infinity – amounted to 2450 ng·h/mL; the AUC(0-t) (commonly the area under the concentration-time curve up to a stated or last time point) stood at 2220 ng·h/mL; the C0 turned out to be 1270 ng/mL; the clearance (commonly the rate of elimination divided by the concentration) stood at 20.4 mL/min/kg. In addition, in series [2] (mouse, 3 mg/kg IV, mean plasma), the MRT inf stood at 2.81 h and the MRT last worked out at 2 h. Besides, the half-life (usually how long it takes for the measured level to halve) in series [2] (mouse, 3 mg/kg IV, mean plasma, Rsq_adj 0.828 (<0.9, might not be accurately estimated)) is 1.89 h. Besides, the Vd in series [2] (mouse, 3 mg/kg IV, mean plasma, read-out: Vdss) turned out to be 3.44 L/kg. In addition, in series [2] (setting [3]), the AUC(0-inf) came out at 7070 ng·h/mL, the AUC(0-t) was found to be 5860 ng·h/mL, the concentration peaked (Cmax) at 1220 ng/mL and the Tmax (commonly the time from dosing to the highest level) is 1 h. Besides, in series [2] (setting [3]), the half-life was 2.88 h, the MRT inf was found to be 4.75 h and the MRT last is 3.22 h. In addition, in series [2] (mouse, plasma, 30 mg/kg PO vs 3 mg/kg IV, calculated from AUC0-inf with nominal dose, read-out: Bioavailability (% F)), the bioavailability (in general, dose-corrected exposure relative to a reference, in per cent) is 28.8%.
